Measurements from publication PMC7036132, “Effects of the Salt-Processing Method on the Pharmacokinetics and Tissue Distribution of Orally Administered Morinda officinalis How. Extract” (Journal of Analytical Methods in Chemistry, 2020).
Values joined by “and” are separate entries in the source; they are usually repeats but may differ in a detail not shown here. Identical values can stand only once. Values belong to the compound of their own block, whether it stands above or below them.

Columns and labels:
[1] = Pharmacokinetics in rat plasma after oral administration of MO and SMO extract (UPLC-MS/MS); assay type: in vivo, Sprague-Dawley (SD) rats; conditions: for Cmax: rat, plasma, po, 40 g/kg; for Cmax / AUC (0-t) / AUC (0-∞) / CL/F / MRT (0-t) / T max / V/F / t1/2z: n = 6
Description: (§1) For LC-MS/MS analysis, data acquisition and instrument control were performed using MassLynx 4.1 software (Waters Corp., Milford, MA, USA). The analysis column was an Acquity UPLC HSS T3 column (100 mm × 2.1 mm, 1.8 μm, Waters) with a temperature of 40°C. The mobile phase was acetonitrile containing 0.1% formic acid (A) and 0.1% formic acid aqueous solution (B). The elution gradient was 0.00–0.50 min with 2% B; 0.51–5.00 min with 2%–30% B; and 5.01–7.00 min with 40% B. The flow rate was 0.2 mL/min.
(§2) The Waters triple quadruple mass spectrometer (Xevo TQD, Waters Corp., Milford, MA, USA) equipped with an electrospray ionization source (ESI) was used in negative ion mode. The desolvation gas was nitrogen with a flow rate of 500 L/h at a temperature of 250°C. All detected compounds were measured in multiple reaction monitoring (MRM) mode.
10 μL of IS working solution and 400 μL of methanol were added to 100 μL plasma. The solution was vortexed for 10 min and then centrifuged at 12,000 rpm for 5 min. The supernatant was shifted to another centrifugation tube and dried with nitrogen at 37°C. The residue was redissolved in 100 μL acetonitrile and centrifuged for 5 min at 12,000 rpm. Five microliters of supernatant was drawn and analyzed by UPLC-MS/MS.
The SD rats (6, male) were housed at 22 ± 2°C and fasted for 12 h with drinking water available ad libitum. MO and SMO ethanol extract were orally administered at a dose of 40 g/kg (equivalent to 6.44 and 3.95 mg/kg of monotropein, 0.088 and 0.091 mg/kg of rubiadin, and 0.174 and 0.178 mg/kg of rubiadin 1-methyl ether). Blood samples (0.5 mL) were collected from the venous plexus of the eye socket at 0.083, 0.25, 0.5, 1.0, 1.5, 2.0, 2.5, 4.0, 6.0, 12.0, and 24 h under anesthesia. Then, the blood samples were centrifuged at 4500 rpm for 10 min, and then the plasma was immediately transferred to new tubes and stored at −80°C until analysis. The pharmacokinetic parameters were calculated using DAS software (3.0 version, China Food and Drug Administration) based on noncompartmental method. All data were recorded as mean ± SD.

[2] = Tissue distribution after oral administration of MO and SMO extract; assay type: in vivo, SD rats; conditions: rat; 0.25, 1, 3 and 6 h after oral MO or SMO extract 40 g/kg
Description: as §1, §2
The whole tissue was cut into pieces and homogenized with ice-cold 0.9% (m/v) sodium chloride solution (1 : 9, w/v). Using 50 μL of tissue homogenate, the tissue samples were prepared in the same way as the plasma samples.
MO and SMO ethanol extract (40 g/kg) was orally administered to SD rats (weight, 180–220 g, n = 6), at 0.25, 1, 3, and 6 h, respectively. […]

[3] = Stability of the three components in rat plasma and tissues (QC samples); conditions: n = 5
Description: The preparation of calibration standards was done as follows: The appropriate working solution was spiked into blank plasma or tissues to obtain concentrations of 75∼0.047 μg/mL for monotropein, 396∼1.54 μg/mL for rubiadin, and 596∼1.16 μg/mL for rubiadin 1-methyl ether. The QC concentrations for monotropein were 0.14 μg/mL, 2 μg/mL, and 28.1 μg/mL; for rubiadin, they were 1.6 μg/mL, 50.6 μg/mL, and 712.5 μg/mL; and for rubiadin 1-methyl ether, they were 3.9 μg/mL, 54.6 μg/mL, and 765 μg/mL. The QC samples used for the recovery, matrix effect, intra- and interday accuracy, precision, and stability studies were prepared in the same way as that of the calibration standards. The solutions were stored for one week at −20°C.
The QC samples used for the recovery QC samples were used to judge the stability, and the storage conditions were as follows: (1) freeze-thaw stability, (2) at room temperature for 4 h, and (3) put into the autosampler for 8 h, and (4) at −20°C for 30 days. The permitted range was within 15%.

[4] = male, Sprague-Dawley, oral MO extract 40 g/kg
[5] = male, Sprague-Dawley, oral SMO extract 40 g/kg
[6] = rat kidney, high Conc (rubiadin 4.63, rubiadin 1-methyl ether 3.49, monotropein 28.13 μg/mL)
[7] = rat kidney, low Conc (rubiadin 0.21, rubiadin 1-methyl ether 0.15, monotropein 1.41 μg/mL)
[8] = rat kidney, middle Conc (rubiadin 0.98, rubiadin 1-methyl ether 0.72, monotropein 6.2 μg/mL)
[9] = rat liver, high Conc (rubiadin 4.63, rubiadin 1-methyl ether 3.49, monotropein 28.13 μg/mL)
[10] = rat liver, low Conc (rubiadin 0.21, rubiadin 1-methyl ether 0.15, monotropein 1.41 μg/mL)
[11] = rat liver, middle Conc (rubiadin 0.98, rubiadin 1-methyl ether 0.72, monotropein 6.2 μg/mL)
[12] = rat lung, high Conc (rubiadin 4.63, rubiadin 1-methyl ether 3.49 μg/mL)
[13] = rat lung, low Conc (rubiadin 0.21, rubiadin 1-methyl ether 0.15 μg/mL)
[14] = rat lung, middle Conc (rubiadin 0.98, rubiadin 1-methyl ether 0.72 μg/mL)
[15] = rat plasma, high Conc (rubiadin 712.5, rubiadin 1-methyl ether 765, monotropein 28.1 μg/mL)
[16] = rat plasma, low Conc (rubiadin 3.6, rubiadin 1-methyl ether 3.9, monotropein 0.14 μg/mL)
[17] = rat plasma, middle Conc (rubiadin 50.6, rubiadin 1-methyl ether 54.6, monotropein 2 μg/mL)
[18] = rat small intestine, high Conc (rubiadin 4.63, rubiadin 1-methyl ether 3.49, monotropein 28.13 μg/mL)
[19] = rat small intestine, low Conc (rubiadin 0.21, rubiadin 1-methyl ether 0.15, monotropein 1.41 μg/mL)
[20] = rat small intestine, middle Conc (rubiadin 0.98, rubiadin 1-methyl ether 0.72, monotropein 6.2 μg/mL)

Cmax [1, 4]: 0.0233 ± 0.000764 µg/mL
Cmax [1, 5]: 0.0233 ± 0.000676 µg/mL
Shape of plasma concentration-time curve ([1]; oral MO and SMO extract 40 g/kg): obvious double-peak phenomenon
AUC (0-t) ([1]; oral MO extract 40 g/kg): 44.22 ± 0.932 μg/L ∗ h
AUC (0-∞) ([1]; oral MO extract 40 g/kg): 48.952 ± 1.559 μg/L ∗ h
CL/F ([1]; oral MO extract 40 g/kg): 0.818 ± 0.265 L/g/h
MRT (0-t) ([1]; oral MO extract 40 g/kg): 3.863 ± 0.184 H
T max ([1]; oral MO extract 40 g/kg): 1.0 H and 1.0 ± 0.00 H
V/F ([1]; oral MO extract 40 g/kg): 14.447 ± 2.143 L/g
t1/2z ([1]; oral MO extract 40 g/kg): 12.291 ± 2.09 H
AUC (0-t) ([1]; oral SMO extract 40 g/kg): 26.941 ± 1.423 μg/L ∗ h
AUC (0-∞) ([1]; oral SMO extract 40 g/kg): 27.045 ± 1.338 μg/L ∗ h
CL/F ([1]; oral SMO extract 40 g/kg): 1.482 ± 0.750 L/g/h
MRT (0-t) ([1]; oral SMO extract 40 g/kg): 1.686 ± 0.025 H
T max ([1]; oral SMO extract 40 g/kg): 0.5 H and 0.5 ± 0.00 H
V/F ([1]; oral SMO extract 40 g/kg): 12.239 ± 9.027 L/g
t1/2z ([1]; oral SMO extract 40 g/kg): 5.611 ± 3.958 H
Concentration in lung tissue [2]: could not be quantified
SMILES: O=C(O)C1=CO[C@@H](O[C@@H]2O[C@H](CO)[C@@H](O)[C@H](O)[C@H]2O)[C@H]2[C@@H]1C=C[C@]2(O)CO [Monotropein, monotropein]

SMILES: COc1c(C)c(O)cc2c1C(=O)c1ccccc1C2=O [Rubiadin 1-methyl ether, rubiadin 1-methyl ether]
Stability RE%, At 25°C for 12 h [3, 6]: −3.58%
Stability RE%, Autosampler at 4°C for 24 h [3, 6]: −0.36%
Stability RE%, Freeze–thaw cycles [3, 6]: −1.57%
Stability RE%, −20°C for 30 days [3, 6]: 0.54%
Stability RE%, At 25°C for 12 h [3, 7]: 0.35%
Stability RE%, Autosampler at 4°C for 24 h [3, 7]: −0.36%
Stability RE%, Freeze–thaw cycles [3, 7]: 0.15%
Stability RE%, −20°C for 30 days [3, 7]: −5.1%
Stability RE%, At 25°C for 12 h [3, 8]: 0.24%
Stability RE%, Autosampler at 4°C for 24 h [3, 8]: −0.68%
Stability RE%, Freeze–thaw cycles [3, 8]: −0.54%
Stability RE%, −20°C for 30 days [3, 8]: −2.49%
Stability RE%, At 25°C for 12 h [3, 9]: 0.42%
Stability RE%, Autosampler at 4°C for 24 h [3, 9]: −0.66%
Stability RE%, Freeze–thaw cycles [3, 9]: −0.68%
Stability RE%, −20°C for 30 days [3, 9]: −2.58%
Stability RE%, At 25°C for 12 h [3, 10]: −2.1%
Stability RE%, Autosampler at 4°C for 24 h [3, 10]: 0.54%
Stability RE%, Freeze–thaw cycles [3, 10]: −1.52%
Stability RE%, −20°C for 30 days [3, 10]: −0.58%
Stability RE%, At 25°C for 12 h [3, 11]: −3.42%
Stability RE%, Autosampler at 4°C for 24 h [3, 11]: −3.81%
Stability RE%, Freeze–thaw cycles [3, 11]: −5.42%
Stability RE%, −20°C for 30 days [3, 11]: −0.45%
Stability RE%, At 25°C for 12 h [3, 12]: −0.06%
Stability RE%, Autosampler at 4°C for 24 h [3, 12]: −2.42%
Stability RE%, Freeze–thaw cycles [3, 12]: −0.53%
Stability RE%, −20°C for 30 days [3, 12]: 0.05%
Stability RE%, At 25°C for 12 h [3, 13]: −0.57%
Stability RE%, Autosampler at 4°C for 24 h [3, 13]: −8.51%
Stability RE%, Freeze–thaw cycles [3, 13]: −2.57%
Stability RE%, −20°C for 30 days [3, 13]: −1.54%
Stability RE%, At 25°C for 12 h [3, 14]: −5.71%
Stability RE%, Autosampler at 4°C for 24 h [3, 14]: −0.65%
Stability RE%, Freeze–thaw cycles [3, 14]: −4.85%
Stability RE%, −20°C for 30 days [3, 14]: −0.55%
Stability RE%, At 25°C for 12 h [3, 15]: −5.1%
Stability RE%, Autosampler at 4°C for 24 h [3, 15]: −3.14%
Stability RE%, Freeze–thaw cycles [3, 15]: −3.71%
Stability RE%, −20°C for 30 days [3, 15]: −0.86%
Stability RE%, At 25°C for 12 h [3, 16]: −1.79%
Stability RE%, Autosampler at 4°C for 24 h [3, 16]: −1.49%
Stability RE%, Freeze–thaw cycles [3, 16]: −0.94%
Stability RE%, −20°C for 30 days [3, 16]: −3.26%
Stability RE%, At 25°C for 12 h [3, 17]: −4.21%
Stability RE%, Autosampler at 4°C for 24 h [3, 17]: −1.65%
Stability RE%, Freeze–thaw cycles [3, 17]: −1.35%
Stability RE%, −20°C for 30 days [3, 17]: −0.23%
Stability RE%, At 25°C for 12 h [3, 18]: 0.25%
Stability RE%, Autosampler at 4°C for 24 h [3, 18]: 0.48%
Stability RE%, Freeze–thaw cycles [3, 18]: −0.74%
Stability RE%, −20°C for 30 days [3, 18]: 1.35%
Stability RE%, At 25°C for 12 h [3, 19]: −0.69%
Stability RE%, Autosampler at 4°C for 24 h [3, 19]: −0.42%
Stability RE%, Freeze–thaw cycles [3, 19]: −6.57%
Stability RE%, −20°C for 30 days [3, 19]: −1.25%
Stability RE%, At 25°C for 12 h [3, 20]: −0.85%
Stability RE%, Autosampler at 4°C for 24 h [3, 20]: −0.62%
Stability RE%, Freeze–thaw cycles [3, 20]: −0.57%
Stability RE%, −20°C for 30 days [3, 20]: −0.25%
Cmax compared among the three components ([1]; especially in the SMO groups): the highest
Cmax [1, 4]: 0.432 ± 0.037 µg/mL
Cmax [1, 5]: 0.509 ± 0.0351 µg/mL
AUC (0-t) ([1]; oral MO extract 40 g/kg): 1059.49 ± 98.081 μg/L ∗ h
AUC (0-∞) ([1]; oral MO extract 40 g/kg): 1074.351 ± 102.019 μg/L ∗ h
CL/F ([1]; oral MO extract 40 g/kg): 0.037 ± 0.372 L/g/h
MRT (0-t) ([1]; oral MO extract 40 g/kg): 2.908 ± 0.151 H
T max ([1]; oral MO extract 40 g/kg): 0.5 ± 0.00 H
V/F ([1]; oral MO extract 40 g/kg): 0.287 ± 0.067 L/g
t1/2z ([1]; oral MO extract 40 g/kg): 5.379 ± 1.514 H
AUC (0-t) ([1]; oral SMO extract 40 g/kg): 1244.329 ± 82.805 μg/L ∗ h
AUC (0-∞) ([1]; oral SMO extract 40 g/kg): 1253.526 ± 84.691 μg/L ∗ h
CL/F ([1]; oral SMO extract 40 g/kg): 0.032 ± 0.210 L/g/h
MRT (0-t) ([1]; oral SMO extract 40 g/kg): 2.855 ± 0.15 H
T max ([1]; oral SMO extract 40 g/kg): 0.5 ± 0.00 H
V/F ([1]; oral SMO extract 40 g/kg): 0.196 ± 0.363 L/g
t1/2z ([1]; oral SMO extract 40 g/kg): 4.27 ± 0.865 H
Cmax and AUC0-t, SMO groups compared with the MO group ([1]; oral extract 40 g/kg): elevated remarkably

Tmax ([1]; male, Sprague-Dawley, oral extract 40 g/kg, MO or SMO group not specified): 1.5 h
Cmax [1, 4]: 0.0467 ± 0.0129 µg/mL
Cmax [1, 5]: 0.0502 ± 0.0089 µg/mL
AUC (0-t) ([1]; oral MO extract 40 g/kg): 152.252 ± 7.098 μg/L ∗ h
AUC (0-∞) ([1]; oral MO extract 40 g/kg): 153.816 ± 7.169 μg/L ∗ h
CL/F ([1]; oral MO extract 40 g/kg): 0.261 ± 0.012 L/g/h
MRT (0-t) ([1]; oral MO extract 40 g/kg): 6.062 ± 0.272 H
T max ([1]; oral MO extract 40 g/kg): 1.5 ± 0.00 H
V/F ([1]; oral MO extract 40 g/kg): 1.442 ± 0.090 L/g
t1/2z ([1]; oral MO extract 40 g/kg): 3.838 ± 0.196 H
AUC (0-t) ([1]; oral SMO extract 40 g/kg): 169.355 ± 8.836 μg/L ∗ h
AUC (0-∞) ([1]; oral SMO extract 40 g/kg): 176.441 ± 18.283 μg/L ∗ h
CL/F ([1]; oral SMO extract 40 g/kg): 0.228 ± 0.022 L/g/h
MRT (0-t) ([1]; oral SMO extract 40 g/kg): 5.89 ± 0.265 H
T max ([1]; oral SMO extract 40 g/kg): 1.5 ± 0.00 H
V/F ([1]; oral SMO extract 40 g/kg): 1.579 ± 0.842 L/g
t1/2z ([1]; oral SMO extract 40 g/kg): 5.006 ± 3.383 H
Cmax and AUC0-t, SMO groups compared with the MO group ([1]; oral extract 40 g/kg): elevated remarkably
SMILES: Cc1c(O)cc2c(c1O)C(=O)c1ccccc1C2=O [Rubiadin, rubiadin]
